# Patent publication US20190083437A1, “S- Methylcysteine Sulfoxide For Prostate Cancer Prevention And Treatment” (QUADRAM INSTITUTE BIOSCIENCE, priority 2016, published 2019)
# Columns and labels:
# [1] = system: human prostatic PNT1A cell line; experiment: ATP levels in prostate cell assay (fluorimetric kit); assay type: cell-based; details: SMCSO 100 μM or 200 μM, 24 hours exposure, vs control cells
# Procedure: The concentration of S-methylsulfoxide used in this study (100 μmol to 200 μmop was similar to that found in urine following consumption of 1.0-1.5 mmoles of S-methylcysteine sulfoxide.
# Cells of the human prostatic PNT1A cell line were incubated with SMCSO at 100 μM or 200 μM, these concentrations were chosen as they were consistent with the physiological concentrations of SMCSO measured in the human intervention diet study, for example 2-4 hours after consumption of Beneforté™ broccoli soup the concentration of SMCSO in the urine of study subjects ranged from 42.18 μM to 130.17 μM, see Table 1. ATP levels (nmol/mg protein) in control and SMCSO treated cells were measured fluorimetrically using a commercially available kit (Abcam, ab 8335).
# [2] = within 24 h, radioactive SMCSO to humans; cited from earlier work
# [3] = system: Human prostate PNT1A cells; experiment: Cell assay of SMCSO uptake/accumulation in cells (HPLC of whole cell lysates); assay type: cell-based; details: 300 μM SMCSO
# Procedure: PNT1A cells were treated with 300μM SMCSO and intracellular levels of SMCSO were quantified following incubation of between 1 h and 72 h. Data shown are means±SD (n=3).
# Human prostate PNT1A cells were incubated with 300 μM SMCSO for up to 72 h in triplicate. Whole cell lysates were collected at regular intervals between 0 and 72 h and levels of SMCSO were quantified by HPLC as above. […] Uptake increases up to approximately 30% following 72 h of exposure to SMCSO.
# [4] = SMCSO bioavailability from single dietary supplementation with Beneforte broccoli and stilton soup (plasma and urine over 24 h); assay type: in vivo, human
# Excerpt: Exposure of prostate tissues to S-methylcysteine sulfoxide may occur either through the systemic circulation in the blood stream, or through urinary reflux. Indeed, urinary reflux into prostatic ducts is common knowledge in the field (Kirby R. S. et al. Intra-prostatic urinary reflux: an aetiological factor in abacterial prostatitis. British Journal of Urology 54, 729-731 (1982)). FIGS. 5 and 6 respectively show the plasma concentration and cumulative excretion of S-methylcysteine sulfoxide in urine following consumption of Beneforté™ broccoli (described, for example, in WO99/052345) and Stilton soup containing 1.2 mmoles of S-methylcysteine sulfoxide.
# The change in plasma concentration of S-methylcysteine sulfoxide was recorded over 24 hours in ten patients.
# Ten patients took part in this study. The total S-methylcysteine sulfoxide excreted represented 23% of that consumed.
# A dietary intervention study was carried out on healthy subjects (n=10) whereby a single event of dietary supplementation was carried out with Beneforte™ broccoli and stilton soup, produced according to the recipe as described in Example 1, providing an effective SMCSO dose of 1.2 mmoles. This was followed by urine and blood collection over 24 h. Plasma and urinary concentrations of SMCSO were measured, see FIGS. 5 (plasma) and 6 (urine). SMCSO concentration in blood plasma increased from a baseline level of 0 μM at the start of the 24 h period to a maximum concentration of 24 μM one hour after consumption of the soup. […] The 24 h cumulative urinary concentration was over 100 μmoles SMCSO.
# prostate tissue = experiment: Short duration (4-6 weeks) diet intervention study: SMCSO and ADP in prostate biopsy tissue; assay type: in vivo, human; details: three 300 g portions per week (6.4 mmoles SMCSO each) for at least 4 weeks, n=9 per arm, p=0.005
# Excerpt: A two arm parallel un-blinded short-term intervention with an enhanced dose of broccoli soups was undertaken. The study recruited men who had been diagnosed or were under investigation for prostate cancer and required a transperineal template biopsy as part of their standard clinical care.
# Patients recruited onto this study were randomly allocated to one of two arms in which they were required to consume three portions of broccoli and stilton soup per week for at least four weeks prior to their biopsy (i) or to follow their normal diet until the operation date (ii). The broccoli and stilton soups contained glucoraphanin-enriched Beneforte® broccoli. The study was not blinded and involved tissue, blood and urine collection on the same day that patients were scheduled for their diagnostic biopsy. Their habitual intake of cruciferous vegetables and dietary supplements was assessed. […]
# SMCSO was measured by following the method described by Bernaert and colleagues (Bernaert, N., et al., Influence of cultivar and harvest time on the amounts of isoalliin and methiin in leek (Allium ampeloprasum var. porrum). J Agric Food Chem, 2012. 60(44): p. 10910-9). […] After centrifugation, the supernatant was diluted with 0.1% formic acid in water, and analysed by LC-MS/MS using an Agilent 6490 mass spectrometer with a photodiode array detector. […]
substance,measurement,setting,value
S-methylcysteine sulfoxide [SMCSO],cellular concentration of ATP,[1],reduced
same,SMCSO excreted un-metabolised within urine,[2],6-8%
same,cellular uptake of SMCSO (speed),[3],"rapid, as early as 1 h"
same,intracellular SMCSO uptake as % of exposure,[3]; 72 h of exposure,approximately 30%
same,intracellular SMCSO level as % of the initial exposure levels,[3]; constant from 1 h for at least 24 h,10%
same,concentration of SMCSO in urine (up to),"[4]; 0-2 h after consumption, 1.2 mmoles SMCSO",up to 164 uM
same,likely concentration of SMCSO within a single urination,"[4]; 0-2 h after consumption, estimate",> 200 µM
same,blood plasma levels at the end of the 24 h period,"[4]; 1.2 mmoles SMCSO, 24 h",remained elevated above baseline
same,"cumulative urinary SMCSO, mean","[4]; 2-4 hours after dietary supplementation, 1.2 mmoles SMCSO",71.5 µmol
same,24 h cumulative urinary SMCSO,"[4]; 24 h, 1.2 mmoles SMCSO",over 100 μmoles
same,"S-methylcysteine sulfoxide excreted in urine (concentration, up to)","[4]; first 0-2 hours, soup containing 1.2 mmoles",up to 163.9 μM
same,time of maximum plasma concentration after consumption of the soup,"[4]; healthy subjects n=10, 1.2 mmoles SMCSO",one
same,maximum SMCSO concentration in blood plasma,"[4]; healthy subjects n=10, single soup portion providing 1.2 mmoles SMCSO, oral",24 µM
same,total S-methylcysteine sulfoxide excreted in urine as share of that consumed,"[4]; ten patients, 1.2 mmoles, cumulative",23%
same,"SMCSO accumulation in prostate biopsy tissue, intervention vs non-intervention arm",prostate tissue,increased accumulation
